We go through 1 molecule from US10233188B2, “CDK2/4/6 inhibitors” (priority 2016, dated 2019).

One assay deals with Ovcar3 tumor xenograft. As to the kind of experiment: Ovcar3 mouse tumor xenograft model. In kind it is in vivo, NSG mice. The following applies: 10 mpk PO QD, 50 mpk PO QD and 50 mpk PO BID, 14 days. The procedure:
Ovcar3 tumor cell line, purchased from ATCC (ATCC HTB-161™) was cultured in RPMI1640 (1×) media (Gibco™ cat#11875-093) with 10% FBS (Gibco™ cat #26140-079). To establish a Ovcar3 xenograft model, 5×10^6 cells per mouse was implanted subcutaneously into right hind flank NSG mice (#5557-NOD.cg-Prkdc Jackson Lab). Cells were suspended in 50% matrigel (Cultrex Basement Membrane Extract (BME), Trevigen's Basement Membrane Matrix) and 50% RPMI1640 (1×) media (Gibco™ cat#11875-093) serum free media prior to implantation.
Animals were randomized 39 days after cells implantation with each group consisted of 4 mice. Treatment began when tumors reached 100 mm^3-190 mm^3 in size. Test compounds were prepared in 40% Captisol and dosed PO at 10 and 50 mg/kg QD or at 50 mg/kg BID as a suspension for 14 days. Animals were taken down at designated time. Mice receiving no drugs were given vehicle QD or BID for 14 days. Tumor volumes were measured once prior to randomization with an electric caliper, with tumor volumes were calculated using Length×Width×Width/2 formulation. Tumor volumes were measured twice a week with an electric caliper, with tumor volumes calculated using Length×Width×Width/2 formula. Animal weights were recorded twice weekly.

In the next assay the test system is HCC1806 tumor xenograft. The experiment in a line: HCC1806 mouse tumor xenograft model. In kind it is in vivo, NU/NU female mice. The following applies: 30 mpk PO BID, 50 mpk PO BID and 75 mpk PO BID, 14 days.

Description for HCC1806 tumor xenograft: Source: HCC1806 (# CRL 2335, ATCC, Manassas, Va.)
The HCC1806 tumor cell line was cultured in RPMI1640 media supplemented with 10% Fetal Bovine Serum (FBS). To establish a HCC1806 xenograft model, 5×10^6 cells per mouse were implanted subcutaneously into right hind flank NU/NU female mice. Cells were suspended in 50% Cultrex Basement Membrane Extract and 50% RPMI 1640 media serum free media prior to implantation.
Animals were randomized 7 days after cells implantation with each group consisting of 13 mice. Treatment began when tumors reached 100 mm^3 to 170 mm^3 in size on Day 7. Test compounds were prepared in 0.1% Tween, 0.5% Methyl cellulose in water and dosed PO at 30, 50, and 75 mg/kg as a suspension BID for 14 days. Mice receiving no drugs were given vehicle BID for 14 days. Tumor volumes were measured twice a week with an electric caliper, with tumor volumes calculated using Length×Width×Width/2 formula. Animal weights were recorded twice weekly.

`C[C@@]1(O)CCC[C@H]1n1c(=O)ccc2cnc(NC3CCN(S(C)(=O)=O)CC3)nc21` [Example 2, 8-[(1R,2R)-2-hydroxy-2-methylcyclopentyl]-2-{[1-(methylsulfonyl)piperidin-4-yl]amino}pyrido[2,3-d]pyrimidin-7(8H)-one]: the “inhibition of tumor growth (mm^3)” value in the assay on Ovcar3 tumor xenograft and with HCC1806 tumor xenograft was “dose dependent inhibition of tumor growth” throughout.
